# Results reported in US4191808A, “Method of measuring dipeptidyl-amino-peptidase activity” (Ajinomoto Co., Inc., priority 1975, dated 1980).
# Peptide text beside a SMILES is read from it. * marks the point of attachment. pNA = O=[N+]([O-])c1ccc(N*)cc1
# Tests used:
# [1] = Time for perfect dissolution in water with stirring; format: physicochemical; conditions: 0.23 mg in 100 ml water with stirring
# Procedure: 0.23 mg of crystalline glycyl-L-proline p-nitroanilide tosylate was dissolved in 100 ml water with stirring. It took ca. 30 minutes at 20° C. and ca. 18 minutes at 30° C. for perfect dissolution.
# On the other hand, 0.23 mg of porous glycyl-L-proline p-nitroanilide tosylate, which was prepared by freezing […]. mole aqueous solution of the same at -40° C. and then drying the freezed solid at 0.05 mmHg, was dissolved in 100 ml water with stirring as in the above procedure. It only took ca. 10 seconds at 20° C. and ca. 5 seconds at 30° C. for perfect dissolution.
# [2] = system: purified human submaxillary enzyme (X-prolyl dipeptidyl-aminopeptidase); experiment: Direct photometric assay of substrate hydrolysis with purified human submaxillary enzyme; format: biochemical; conditions: for Optimum pH: Tris-maleate, glycine-NaOH or amidiol buffer; for Relative enzyme activity (%) Purified human submaxillary enzyme pH 7.0: pH 7.0, 0.15 M Tris-maleate buffer, glycyl-L-proline p-nitroanilide = 100; for Km: pH 7.0, Tris-maleate buffer, mean of duplicate experiments
# Procedure: (§1) 3mM substrate solutions were prepared as in Example 22, various dipeptide derivatives or salts thereof being used as substrates. The relative enzyme activities toward various substrates, and the rates and optimum pHs of hydrolysis of various substrates with the enzyme were measured as in Example 22.
# ^a Activities were measured in 0.15 M Trismaleate buffer at pH 5.6-8.
# and in 0.15 M glycineNaOH buffer at pH 8.2-9.4, purified human
# submaxillary enzyme being used. For Lalanyl-L-proline pnitroanilide,
# amidiol buffer were used instead of glycine buffer, since glycine buffer
# interfered the photometry at pH 9-10.
# ^b Km values were measured at 7.0 in Trismaleate buffer, purified
# human submaxillary enzyme being used. The values are the mean of duplicat
# (§2) ^c Activities were measured at pH 7.0 in 0.15 M Trismaleate buffer or
# (§3) at pH 8.7 in 0.15 M glycineNaOH buffer. The values are the mean of
# ^d The purified enzyme was obtained by the following method; The
# enzyme was solubilized from the microsomal fraction by autodigestion, and
# subsequently purified by (NH4)2 SO4 fractionation followed
# by Sephadex G200 chromatography.
# [3] = biological target: T1, X-prolyl dipeptidyl-aminopeptidase in human serum (Homo sapiens, UniProt P27487); experiment: Direct photometric assay of substrate hydrolysis (p-nitroaniline liberated, 385 nm) with human serum as enzyme source; format: biochemical; conditions: for Enzyme activity (μmole/min/1 serum ± S.E.): 3 cases; for Relative enzyme activity (%) Human serum pH 7.0: pH 7.0, 0.15 M Tris-maleate buffer; for Relative enzyme activity (%) Human serum pH 7.0 / Relative enzyme activity (%) Human serum pH 8.7: glycyl-L-proline p-nitroanilide = 100; for Relative enzyme activity (%) Human serum pH 8.7: pH 8.7, 0.15 M glycine-NaOH buffer
# T1 construct: Even if crude enzyme such as human serum is used as enzyme source, the activity is accurately measured; from tissue; host or cells: human serum (normal subjects and patients)
# Procedure: The relation between the incubation time and the amount of substrate hydrolyzed was examined, glycyl-L-proline p-nitroanilide and human serum being used as substrate and enzyme source, respectively, and the assay of the substrate hydrolyzed was carried out by the following direct photometric method.
# Glycyl-L-proline p-nitroanilide tosylate was dissolved in 2% non-ionic detergent (Nikkol NP-10; Nikko Chemicals, Osaka, Japan) aqueous solution in a concentration of 3 mM to prepare the substrate solution. The following four tubes were prepared:
# (1) the experimental tube contained 0.5 ml of 0.15 M glycine-NaOH buffer (pH 8.7), 0.5 ml of the substrate solution, and 0.05 ml of human serum
# (2) the blank tube contained 0.5 ml of the 0.15 M glycine-NaOH buffer, 0.5 ml of the substrate solution and 0.05 ml of water.
# (3) the standard tube contained 0.5 ml of the buffer, 0.5 ml of the substrate and 0.05 ml of 3 mM p-nitroaniline aqueous solution.
# (4) the control tube contained 0.5 ml of the buffer and 0.5 ml of the substrate.
# All tubes were incubated at 37° C. for the periods listed in Table 1, and the reaction was stopped by the addition of 3.0 ml of 1M acetate buffer (pH 4.2) to every tube. To the control tube, 0.05 ml of the human serum was added after stopping the reaction. A photometer was adjusted to zero with the blank, and the absorbances of the experimental (E), control (C), and standard (S) were read at 385 nm in a cuvette with 1 cm light path. p-Nitroaniline liberated by the enzyme reaction was calculated by the equation [formula]
# as §1, §2, §3
# The activity of X-prolyl dipeptidyl-aminopeptidase was measured as in Example 22, glycyl-L-proline p-nitroanilide and 88 normal human sera being used as substrate and enzyme, respectively.
# The activity of X-prolyl dipeptidyl-aminopeptidase was measured as in Example 22, glycyl-L-proline p-nitroanilide and human sera from patients being used as substrate and enzyme sources, respectively.
# The activity of X-prolyl dipeptidyl-aminopeptidase was measured as in Example 22, various X-L-prolyl p-nitroanilides, and human sera from patients being used as substrates and enzyme sources, respectively.
# [4] = biological target: T1, X-prolyl dipeptidyl-aminopeptidase in human serum; experiment: Azo-coupling assay of substrate hydrolysis (548 nm) with human serum as enzyme source; format: biochemical; conditions: 37° C., 30 minutes, pH 8.7
# Procedure: The relation between the amount of enzyme and the amount of substrate hydrolyzed was examined, glycyl-L-proline p-nitroanilide tosylate and human serum being used as substrate and enzyme source, respectively, and the assay of the substrate hydrolyzed being carried out by the following azo-coupling method.
# The following tubes were prepared: (1) the experimental tube contained 1.0 ml of 0.15 M glycine-NaOH buffer (pH 8.7), 1.0 ml of the substrate solution prepared in Example 22, and the volume listed in table 2 of human serum.
# (2) the control tube contained 1.0 ml of the glycine-NaOH buffer, and 1.0 ml of the substrate solution.
# Both experimental and control tubes were incubated at 37° C. for 30 minutes, and 0.1 ml of the serum was added to the control tube. The reaction was stopped by adding 0.4 ml of 30% perchloric acid aqueous solution. After centrifuging at 3000 rpm for 10 minutes, each 0.5 ml of the supernatant was transferred to another tube; besides 0.1 ml of […] p-nitroaniline aqueous solution and 2.4 ml of 30% perchloric acid solution were added to the standard tube, and 2.5 ml of the perchloric acid solution was added to the blank tube.
# To all the four tubes, 0.5 ml of 0.2% sodium nitrite aqueous solution at 4° C., and they were kept at 4° C. for 10 minutes. Then, 0.5 ml of freshly prepared 0.5% ammonium sulfamate aqueous solution was added. After 2 minutes, 1.0 ml of 0.05% N-(1-naphthyl) ethylenediamine solution was added and the mixtures were incubated at 37° C. for 30 minutes in the dark.
# A photometer was adjusted to zero with the blank, and the absorbances of the experimental (E), control (C), and standard (S) were read at 548 nm.
# p-Nitroaniline formed enzymically was calculated by the equation: [formula] the volume of […] p-nitroaniline aqueous solution used in the standard tube (ml)).
# [5] = human sera from patients, Gastric Cancer
# [6] = human sera from patients, Hepatitis
# T1 sequence (P27487 39-766 limits assumed): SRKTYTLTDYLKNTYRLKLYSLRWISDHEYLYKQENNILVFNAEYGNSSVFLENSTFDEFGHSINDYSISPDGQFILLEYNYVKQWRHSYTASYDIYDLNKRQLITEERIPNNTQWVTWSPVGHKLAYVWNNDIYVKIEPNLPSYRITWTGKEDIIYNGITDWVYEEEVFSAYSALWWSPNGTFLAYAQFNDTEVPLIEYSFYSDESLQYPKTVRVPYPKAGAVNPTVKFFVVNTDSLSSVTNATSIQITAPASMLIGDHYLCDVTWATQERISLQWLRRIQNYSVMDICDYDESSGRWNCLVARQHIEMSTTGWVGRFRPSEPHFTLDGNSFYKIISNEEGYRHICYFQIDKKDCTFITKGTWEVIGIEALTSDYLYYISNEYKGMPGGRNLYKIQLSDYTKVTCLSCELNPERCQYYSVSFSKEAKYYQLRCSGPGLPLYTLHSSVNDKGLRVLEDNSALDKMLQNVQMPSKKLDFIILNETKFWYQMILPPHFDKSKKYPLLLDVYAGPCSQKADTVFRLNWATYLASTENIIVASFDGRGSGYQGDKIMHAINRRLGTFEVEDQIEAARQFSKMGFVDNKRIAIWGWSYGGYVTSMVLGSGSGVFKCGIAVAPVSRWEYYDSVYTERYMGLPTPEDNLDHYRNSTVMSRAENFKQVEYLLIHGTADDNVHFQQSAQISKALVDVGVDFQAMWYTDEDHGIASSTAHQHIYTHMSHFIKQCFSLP
Structure (SMILES),Optimum pH [2],Relative enzyme activity (%) Purified human submaxillary enzyme pH 7.0 [2],Km [2],"Enzyme activity (μmole/min/1 serum ± S.E.) [3, 5]","Enzyme activity (μmole/min/1 serum ± S.E.) [3, 6]","Enzyme activity (μmole/min/1 serum ± S.E.) ([3]; human sera, Normal (control))",Relative enzyme activity (%) Human serum pH 7.0 ([3]; human serum),Relative enzyme activity (%) Human serum pH 8.7 ([3]; human serum),other results
Cc1ccc(S(=O)(=O)O)cc1.NCC(=O)N1CCC[C@H]1C(=O)Nc1ccc([N+](=O)[O-])cc1 [glycyl-L-proline p-nitroanilide tosylate] (H-Gly-Pro-pNA),–,–,–,–,–,–,–,–,"time for perfect dissolution ([1]; 20° C., tosylate): ca. 10 seconds; time for perfect dissolution ([1]; 30° C., tosylate): ca. 5 seconds"
"Cc1ccc(S(=O)(=O)O)cc1.Cc1ccc(S(=O)(=O)O)cc1.N=C(N)NCCC[C@H](N)C(=O)N1CCC[C@H]1C(=O)Nc1ccc([N+](=O)[O-])cc1 [L-arginyl-L-proline p-nitroanilide, L-Arginyl-L-proline p-nitroanilide ditosylate] (H-Arg-Pro-pNA)",7.8-8.0,94%,230 µM,6.0 ± 0.7 μmole/min/1 serum,35.5 ± 6.8 μmole/min/1 serum,13.8 ± 3.6 μmole/min/1 serum,86%,55%,–
"Cc1ccc(S(=O)(=O)O)cc1.Cc1ccc(S(=O)(=O)O)cc1.NCCCC[C@H](N)C(=O)N1CCC[C@H]1C(=O)Nc1ccc([N+](=O)[O-])cc1 [L-lysyl-L-proline p-nitroanilide, L-Lysyl-L-proline p-nitroanilide ditosylate] (H-Lys-Pro-pNA)",8.5-8.7,121%,120 µM,8.2 ± 0.8 μmole/min/1 serum,49.7 ± 10.2 μmole/min/1 serum,18.2 ± 4.7 μmole/min/1 serum,122%,71%,–
"N[C@@H](CCC(=O)O)C(=O)N1CCC[C@H]1C(=O)Nc1ccc([N+](=O)[O-])cc1 [L-glutamyl-L-proline p-nitroanilide, L-Glutamyl-L-proline p-nitroanilide] (H-Glu-Pro-pNA)",8.5-8.7,58%,23 µM,13.9 ± 1.3 μmole/min/1 serum,74.8 ± 17.6 μmole/min/1 serum,27.5 ± 7.5 μmole/min/1 serum,54%,37%,–
"Br.O=C(Nc1ccc([N+](=O)[O-])cc1)[C@@H]1CCCN1 [L-proline p-nitroanilide, L-Proline p-nitroanilide hydrobromide, reference compound]",–,–,–,–,–,–,–,–,"rate of hydrolysis by human serum, as % of hydrolysis of glycyl-L-proline p-nitroanilide ([3]; human serum): 0.7%"
"N[C@@H](CC(=O)O)C(=O)N1CCC[C@H]1C(=O)Nc1ccc([N+](=O)[O-])cc1 [L-aspartyl-L-proline p-nitroanilide, L-Aspartyl-L-proline p-nitroanilide] (H-Asp-Pro-pNA)",8.5-8.7,37%,81 µM,17.6 ± 1.6 μmole/min/1 serum,102.5 ± 17.5 μmole/min/1 serum,37.7 ± 9.0 μmole/min/1 serum,34%,28%,–
"Cc1ccc(S(=O)(=O)O)cc1.NCC(=O)N1CCC[C@H]1C(=O)Nc1ccc([N+](=O)[O-])cc1 [glycyl-L-proline p-nitroanilide tosylate, Glycyl-L-proline p-nitroanilide tosylate] (H-Gly-Pro-pNA)",–,–,–,–,–,–,–,–,"Amount of p-nitroaniline formed ([4]; volume of serum 0.01 ml): 14.24 n mole; Amount of p-nitroaniline formed ([4]; volume of serum 0.02 ml): 32.91 n mole; Amount of p-nitroaniline formed ([4]; volume of serum 0.03 ml): 45.89 n mole; Amount of p-nitroaniline formed ([4]; volume of serum 0.04 ml): 62.50 n mole; Amount of p-nitroaniline formed ([4]; volume of serum 0.05 ml): 82.44 n mole; Amount of p-nitroaniline formed ([4]; volume of serum 0.10 ml): 155.06 n mole; time for perfect dissolution ([1]; 20° C., listed as crystalline glycyl-L-proline p-nitroanilide tosylate): ca. 30 minutes; time for perfect dissolution ([1]; 30° C., listed as crystalline glycyl-L-proline p-nitroanilide tosylate): ca. 18 minutes"
"C[C@H](N)C(=O)N1CCC[C@H]1C(=O)Nc1ccc([N+](=O)[O-])cc1.Cl [L-alanyl-L-proline p-nitroanilide, L-Alanyl-L-proline p-nitroanilide hydrochloride] (H-Ala-Pro-pNA)",8.5-8.7,86%,14 µM,18.5 ± 1.9 μmole/min/1 serum,99.5 ± 17.0 μmole/min/1 serum,36.6 ± 9.6 μmole/min/1 serum,83%,75%,–
